Values after ≈ are worked out from the molar mass of the structure shown. Active and inactive are the calls of the source. The calls are words filed in the database; no cut-off is given here.

Test [1] deals with Staphylococcus aureus. Put plainly: Antibacterial activity against Staphylococcus aureus MTCC 96 after 24 hrs by well diffusion method. The class given is functional. The conditions noted are these: MTCC 96, 24 h. (A growth-free zone around the sample is the usual read-out of agar diffusion tests.)
In the next test the test system is Bacillus subtilis. In words: Antibacterial activity against Bacillus subtilis MTCC 121 after 24 hrs by well diffusion method. It is filed as functional. The conditions noted are these: MTCC 121, 24 h.
The subject of test [2] is Staphylococcus aureus. Put plainly: Antibacterial activity against Staphylococcus aureus MLS16 MTCC 2940 after 24 hrs by well diffusion method. It is filed as functional. The conditions noted are these: MLS16 MTCC 2940, 24 h.
Another test relates to Micrococcus luteus. Put plainly: Antibacterial activity against Micrococcus luteus MTCC 2470 after 24 hrs by well diffusion method. The class given is functional. The conditions noted are these: MTCC 2470, 24 h.
The next test deals with Raoultella planticola. Put plainly: Antibacterial activity against Klebsiella planticola MTCC 530 after 24 hrs by well diffusion method. The conditions noted are these: MTCC 530, 24 h. It is filed as functional.
The next test relates to Escherichia coli. Put plainly: Antibacterial activity against Escherichia coli MTCC 739 after 24 hrs by well diffusion method. It is filed as functional. The conditions noted are these: MTCC 739, 24 h.
For another test, the system named is Pseudomonas aeruginosa. Put plainly: Antibacterial activity against Pseudomonas aeruginosa MTCC 2453 after 24 hrs by well diffusion method. The conditions noted are these: MTCC 2453, 24 h. It is filed as functional.
Test [3] concerns HeLa. Put plainly: Cytotoxicity against human HeLa cells at >100 uM after 24 hrs by MTT assay. It is filed as functional, cell-based. A general note: Formazan colour is commonly taken as a measure of viable cells.
Test [4] has as its system HepG2. Put plainly: Cytotoxicity against human HepG2 cells at >100 uM after 24 hrs by MTT assay. The class given is functional, cell-based.
The subject of test [5] is A549. Put plainly: Cytotoxicity against human A549 cells at >100 uM after 24 hrs by MTT assay. The class given is functional, cell-based.
Test [6] deals with COLO 205. Put plainly: Cytotoxicity against human COLO205 cells at >100 uM after 24 hrs by MTT assay. It is filed as functional, cell-based.
Test [7] deals with HeLa. Put plainly: Cytotoxicity against human HeLa cells after 24 hrs by MTT assay. The class given is functional, cell-based.
For test [8], the system named is HepG2. Put plainly: Cytotoxicity against human HepG2 cells after 24 hrs by MTT assay. It is filed as functional, cell-based. The conditions noted are these: HepG2, 24 h.
Test [9] concerns A549. Put plainly: Cytotoxicity against human A549 cells after 24 hrs by MTT assay. It is filed as functional, cell-based. The conditions noted are these: A549, 24 h.
Test [10] deals with COLO 205. Put plainly: Cytotoxicity against human COLO205 cells after 24 hrs by MTT assay. The class given is functional, cell-based. The conditions noted are these: COLO 205, 24 h.

As for `O=C(Cn1nc(C(F)(F)F)c2c(-c3ccccc3)c3ccccc3nc21)NC1CC1`, the MIC against Staphylococcus aureus [1], with Bacillus subtilis, against Staphylococcus aureus [2], in the test on Micrococcus luteus, with Raoultella planticola and against Escherichia coli was 7.8 to 125 µg/mL (≈ 19 to 305 µM) throughout. The MIC (commonly the least concentration at which growth counts as inhibited) in the test with Pseudomonas aeruginosa lay in the range of 7.8 to 125 µg/mL (≈ 19 to 305 µM). The result in the test on HeLa [3], in the test on HepG2 [4], with A549 [5] and in the test with COLO 205 [6] was inactive.
Consider `COc1ccc(NC(=O)Cn2nc(C(F)(F)F)c3c(C)c4ccccc4nc32)cc1`, for which the MIC against Staphylococcus aureus [1], in the test on Bacillus subtilis, in the test on Staphylococcus aureus [2], against Micrococcus luteus, against Raoultella planticola and against Escherichia coli was 7.8 to 125 µg/mL (≈ 18.8 to 302 µM) throughout. The same compound gave an MIC against Pseudomonas aeruginosa of 7.8 to 125 µg/mL (≈ 18.8 to 302 µM). Moreover, the outcome in the test on HeLa [3], in the test on HepG2 [4], in the test on A549 [5] and with COLO 205 [6] was inactive.
Take `O=C(Cn1nc(C(F)(F)F)c2c(-c3ccccc3)c3ccccc3nc21)N1CCN(CCO)CC1`: the minimal inhibitory concentration (MIC) in the test on Staphylococcus aureus [1], with Bacillus subtilis, in the test on Staphylococcus aureus [2], in the test on Micrococcus luteus, against Raoultella planticola and in the test with Escherichia coli was 7.8 to 125 µg/mL (≈ 16.1 to 259 µM) throughout. This compound also returned an MIC in the test with Pseudomonas aeruginosa of 7.8 to 125 µg/mL (≈ 16.1 to 259 µM). The result in the test with HeLa [3], in the test on HepG2 [4], in the test on A549 [5] and in the test on COLO 205 [6] was inactive.
Take `CCCCCCNC(=O)Cn1nc(C(F)(F)F)c2c(C)c3ccccc3nc21`: the MIC against Staphylococcus aureus [1], against Bacillus subtilis, with Staphylococcus aureus [2], with Micrococcus luteus, in the test with Raoultella planticola and in the test with Escherichia coli was 7.8 to 125 µg/mL (≈ 19.9 to 319 µM) in each case. Also, in the test on Pseudomonas aeruginosa, the MIC is 7.8 to 125 µg/mL (≈ 19.9 to 319 µM). Also, the IC50 (usually the point on the concentration scale where inhibition reaches its midpoint) with HeLa [7] came to 21.7 µM; in the test with HepG2 [8] it was 19.6 µM; in the test on A549 [9], 20.5 µM; in the test with COLO 205 [10], 22.2 µM.
In the case of `Cc1c2ccccc2nc2c1c(C(F)(F)F)nn2CC(=O)NC1CC1`, the minimal inhibitory concentration (MIC) in the test with Staphylococcus aureus [1], in the test on Bacillus subtilis, in the test with Staphylococcus aureus [2], against Micrococcus luteus, with Raoultella planticola and against Escherichia coli was 7.8 to 125 µg/mL (≈ 22.4 to 359 µM) in each case. Further, the minimum inhibitory concentration (MIC) with Pseudomonas aeruginosa lay in the range of 7.8 to 125 µg/mL (≈ 22.4 to 359 µM). For the same compound, the IC50 with HeLa [7] worked out at 21 µM; in the test on HepG2 [8] it was 18.6 µM; in the test with A549 [9], 19.2 µM; in the test with COLO 205 [10], 22.7 µM.
On to `CCNC(=O)Cn1nc(C(F)(F)F)c2c(-c3ccccc3)c3ccccc3nc21`, for which the MIC against Staphylococcus aureus [1], with Bacillus subtilis, with Staphylococcus aureus [2], in the test on Micrococcus luteus, in the test on Raoultella planticola and against Escherichia coli was 7.8 to 125 µg/mL (≈ 19.6 to 314 µM) throughout. This compound gave a minimal inhibitory concentration (MIC) in the test on Pseudomonas aeruginosa of 7.8 to 125 µg/mL (≈ 19.6 to 314 µM). The IC50 in the test with HeLa [7] worked out at 26.5 µM; in the test on HepG2 [8], 22.2 µM; in the test on A549 [9], 29.5 µM; with COLO 205 [10], 18.9 µM.
For `Cc1c2ccccc2nc2c1c(C(F)(F)F)nn2CC(=O)N1CCCCC1`, the MIC in the test on Staphylococcus aureus [1], with Bacillus subtilis, in the test on Staphylococcus aureus [2], in the test on Micrococcus luteus, against Raoultella planticola and with Escherichia coli was 7.8 to 125 µg/mL (≈ 20.7 to 332 µM) each time. This compound gave an MIC in the test on Pseudomonas aeruginosa of 7.8 to 125 µg/mL (≈ 20.7 to 332 µM). Besides, the IC50 in the test on HeLa [7] was 33.9 µM; in the test with HepG2 [8], 36.6 µM; in the test with A549 [9], 32.5 µM; in the test with COLO 205 [10] it was 25.4 µM.
With `Cc1c2ccccc2nc2c1c(C(F)(F)F)nn2CC(=O)N1CCN(CCO)CC1`, the MIC with Staphylococcus aureus [1], in the test on Bacillus subtilis, with Staphylococcus aureus [2], against Micrococcus luteus, against Raoultella planticola and in the test on Escherichia coli was 7.8 to 125 µg/mL (≈ 18.5 to 297 µM) throughout. Further, in the test with Pseudomonas aeruginosa, the MIC is 7.8 to 125 µg/mL (≈ 18.5 to 297 µM). The 50% inhibitory concentration (IC50) with HeLa [7] was 28.2 µM; in the test on HepG2 [8], 30.2 µM; in the test on A549 [9], 31.1 µM; in the test on COLO 205 [10] it was 19.8 µM.
Turning to `CNC(=O)Cn1nc(C(F)(F)F)c2c(C)c3ccccc3nc21`, the MIC against Staphylococcus aureus [1], in the test on Bacillus subtilis, in the test with Staphylococcus aureus [2], against Micrococcus luteus, with Raoultella planticola and in the test with Escherichia coli was 7.8 to 125 µg/mL (≈ 24.2 to 388 µM) in each case. The compound also returned an MIC in the test with Pseudomonas aeruginosa of 7.8 to 125 µg/mL (≈ 24.2 to 388 µM). In addition, the IC50 was found to be 17.2 µM in the test with HeLa [7], 18.9 µM in the test with HepG2 [8], 11.3 µM in the test on A549 [9] and 12.8 µM in the test on COLO 205 [10].
Turning to `O=C(Cn1nc(C(F)(F)F)c2c(-c3ccccc3)c3ccccc3nc21)N1CCCC1`, the MIC with Staphylococcus aureus [1], with Bacillus subtilis, against Staphylococcus aureus [2], with Micrococcus luteus, against Raoultella planticola and in the test with Escherichia coli was 7.8 to 125 µg/mL (≈ 18.4 to 295 µM) in each case. Further, in the test on Pseudomonas aeruginosa, the MIC lay in the range of 7.8 to 125 µg/mL (≈ 18.4 to 295 µM). The half-inhibitory concentration (IC50) in the test with HeLa [7] was 29.6 µM; with HepG2 [8], 33.3 µM; in the test with A549 [9], 22.5 µM; with COLO 205 [10], 25.8 µM.
On to `Cc1c2ccccc2nc2c1c(C(F)(F)F)nn2CC(=O)NC1CCCC1`, for which the MIC against Staphylococcus aureus [1], in the test with Bacillus subtilis, in the test on Staphylococcus aureus [2], in the test with Micrococcus luteus, against Raoultella planticola and against Escherichia coli was 7.8 to 125 µg/mL (≈ 20.7 to 332 µM) in each case. Besides, the MIC with Pseudomonas aeruginosa fell in the range of 7.8 to 125 µg/mL (≈ 20.7 to 332 µM). Further, the outcome in the test on HeLa [3], in the test with HepG2 [4], in the test on A549 [5] and with COLO 205 [6] was inactive.
For the compound `COc1ccc(NC(=O)Cn2nc(C)c3c(C)c4ccccc4nc32)cc1`, the MIC in the test with Staphylococcus aureus [1], in the test on Bacillus subtilis, in the test with Staphylococcus aureus [2], against Micrococcus luteus, in the test on Raoultella planticola and in the test on Escherichia coli was 7.8 to 125 µg/mL (≈ 21.6 to 347 µM) in each case. The compound further yielded an MIC in the test with Pseudomonas aeruginosa of 7.8 to 125 µg/mL (≈ 21.6 to 347 µM). Besides, the IC50 was 20.4 µM in the test with HeLa [7], 22.2 µM with HepG2 [8], 25.6 µM in the test on A549 [9] and 18.9 µM in the test with COLO 205 [10].
Consider `Cc1c2ccccc2nc2c1c(C(F)(F)F)nn2CC(=O)Nc1ccc([N+](=O)[O-])cc1`, for which the MIC against Staphylococcus aureus [1], in the test with Bacillus subtilis, against Staphylococcus aureus [2], in the test on Micrococcus luteus, with Raoultella planticola and in the test with Escherichia coli was 7.8 to 125 µg/mL (≈ 18.2 to 291 µM) throughout. Moreover, the MIC against Pseudomonas aeruginosa was in the range of 7.8 to 125 µg/mL (≈ 18.2 to 291 µM). The IC50 amounted to 38.9 µM in the test on HeLa [7] and 36.2 µM in the test on COLO 205 [10]. Further, the result in the test on HepG2 [4] and in the test on A549 [5] was inactive.
Consider `Cc1c2ccccc2nc2c1c(C(F)(F)F)nn2CC(=O)N1CCOCC1`, for which the MIC in the test on Staphylococcus aureus [1], against Bacillus subtilis, with Staphylococcus aureus [2], against Micrococcus luteus, in the test with Raoultella planticola and against Escherichia coli was 7.8 to 125 µg/mL (≈ 20.6 to 330 µM) in each case. The same compound showed an MIC with Pseudomonas aeruginosa of 7.8 to 125 µg/mL (≈ 20.6 to 330 µM). Also, the outcome in the test with HeLa [3], in the test with HepG2 [4], in the test on A549 [5] and with COLO 205 [6] was inactive.
Take `Cc1nn(CC(=O)Nc2ccc([N+](=O)[O-])cc2)c2nc3ccccc3c(C)c12`: the MIC in the test with Staphylococcus aureus [1], against Bacillus subtilis, with Staphylococcus aureus [2], against Micrococcus luteus, against Raoultella planticola and against Escherichia coli was 7.8 to 125 µg/mL (≈ 20.8 to 333 µM) in each case. In the test with Pseudomonas aeruginosa, the MIC was 7.8 to 125 µg/mL (≈ 20.8 to 333 µM). Further, the IC50 came out at 18.5 µM in the test with HeLa [7], 17.2 µM in the test with HepG2 [8], 15.9 µM with A549 [9] and 20.1 µM in the test with COLO 205 [10].

These data come from ChEMBL document CHEMBL4014279, “Synthesis of novel pyrazolo[3,4-b]quinolinyl acetamide analogs, their evaluation for antimicrobial and anticancer activities, validation by molecular modeling and CoMFA analysis” (Eur J Med Chem, 2017).
